Data on six compounds can be found in US5011828A, “Immunostimulating guanine derivatives, compositions and methods” (priority 1988, dated 1991).

≈ marks a conversion by molar mass, not a printed value. Where “and” joins values, the source holds several entries; their conditions need not be identical. Equal values may be shown once.

In one data set the test system is murine spleen cells. In words: Mitogenicity: [3H]TdR uptake, murine system. The data set is classed as cell-based, mouse.
For data set [1], the system named is human peripheral blood lymphocytes (sheep red blood cells as antigen). In words: Antigen-specific adjuvanticity: direct anti-SRBC plaque forming cells, human system. The data set is classed as cell-based. As to conditions: for Average 1 Log Plaque Values: Table 9, human, * = single study. The method, then:
^1 Studies were carried in a manner similar to those of Table 1,
except that a human lymphocyte preparation was used.
The results shown in Table 7, below, were obtained similarly to those discussed above, but using human lymphocytes. Some of those studies utilized lymphocytes from more than one individual, and are therefore reported with multiple entries.
Human peripheral blood lymphocytes (PBL) were prepared from normal heparinized venous blood by Ficoll-diatrizoate density gradient centrifugation. PBL were depleted of suppressor T cells bearing the histamine type 2 receptor by adhering them to the surfaces of histamine-rabbit serum albumin-coated plastic petri dishes (Cell-ect No. 2 kit; Seragen, Boston, Mass.) and by recovering the nonadherent cells by panning as described by Wysocki and Sato, Proc. Natl. Acad. Sci. USA, 75:2844 (1978) and modified by Cavagnaro and Osband, Biotechniques, January/February:30 (1983).
The tissue culture medium employed in these studies for human lymphocytes was prepared as follows: One hundred milliliters (ml) contained 87.9 ml RPMI 1640 (Flow Laboratories, Rockville, Md.), 0.1 ml 100×glutamine,1.0 ml of 1.0 M HEPES buffer (Microbilogical Associates, Betheseda, Md.), 1.0 ml of water containing 10^4 U of penicillin G and 10^4 micrograms of streptomycin, and 10 ml of fresh autologous heat-inactivatedplasma. For evaluation of the primary humoral immune response to SRBC, lymphoid cells prepared as above were cultured at a density of 2×10^6 /ml in a volume of 1.0 ml containing 5×10^6 SRBC as antigen (Colorado Serum Co., Denver, Colo.) together with IL-2 (a partially purified preparation of human IL-2 that was free of interferon-gamma activity was obtained from Electro-Nucleonics, Inc., Silver Spring, Md.) and the guanine nucleoside derivative.
(§1) Assay of plaque forming cells (PFC). PFC secreting antibodies against SRBC were evaluated after 4 or 5 days of culture using a modification of the hemolytic plaque assay of Jerne and Nordin, Science, 140:405 (1963). The cells were brought up in complete medium before plaquing; they were plaqued in standard low Mr agarose (Bio-Rad Laboratories, Richmond Calif.), and were incubated in SRBC-absorbed guinea pig complement for one hour after a 1.5 hour incubation without complement.

The nature of the next data set: physchem. The data set is classed as physicochemical, human. The conditions noted are these: human, urine. The source says:
Solubilities in urine could be expected to be lower than those for water due to the relatively higher salt content in urine than is found in water.
Each sample was filtered through a 5 micron pore-sized filter, diluted as necessary with the HPLC mobile phase, and then quantified by HPLC.

Data set [2] deals with murine lymphocytes (sheep red blood cells as antigen). In words: Antigen-specific adjuvanticity: direct anti-SRBC plaque forming cells, murine system. It counts as cell-based, mouse. The conditions noted are these: for Peak Direct anti-SRBC PFC/Culture: at peak concentration; for Average 1 Log Plaque Values: Table 9, murine, * = single study.
Description: ^1 Adjuvanticities against sheep red blood cells [SRBC] measured in
direct plaqueforming cells per culture of lymphocytes from the mouse
strains shown. Details of the procedure are provided in the Materials and
Methods Section. Standard errors from the enumerated mean values are show
A large number of comparisons of adjuvanticity using human and murine lymphocytes as the source of leukocytes have been carried out using compounds of the present invention, as well as with new compounds excluded from the present invention. […] Interstudy comparisons are however useful for showing trends and large differences. Tables 5, 6 and 7, hereinafter, provide exemplary data from such studies in which only the activity at the peak concentration is shown for each compound and the results for the controls are omitted.
Lymphocyte cultures. The serum-containing culture medium water prepared to contain the following per 100 milliliters: 91.9 milliliters RPMI 1640 (Flow Laboratories, Inc., Rockville, Md.), 0.1 milliliters of 100×glutamine, 1.0 milliliter of 100×sodium pyruvate, 1 0 milliliter of 50×nonessential amino acids, 1.0 milliliter of water containing 10^4 units of penicillin G and 10^4 micrograms of streptomycin, and 5.0 milliliters of a supportive lot of fetal calf serum (FCS). These ingredients were admixed to apparent homogeneity. Spleen cell suspensions and populations enriched for splenic B cells were prepared as described in Goodman et al., J. Immunol., 121:1905 (1978).
For evaluation of the primary humoral immune response to sheep erythrocytes (SRBC), 5×10^6 to 10^7 murine spleen cells were cultured in 1.0 milliliter of 5% FCS-containing medium for 4 or 5 days in the presence and absence of immunogen. Cells were incubated in culture trays (Costar, Cambridge, Mass.) at 37° C. in a humidified atmosphere of 10% CO2 in air using tissue culture boxes (CBS Scientific, Del Mar, Calif.) that were rocked at a frequency of 7 cycles per minute. Pooled SRBC are available from the Colorado Serum Co., Denver Colo.
as §1

Another data set concerns lymphocytes. As to conditions: cited from earlier work.
Data set [3] has as its system CBA/CaJ thymocytes (irradiated BDF1 splenocyte stimulators). In words: T cell proliferation in mixed leukocyte cultures, CBA/CaJ thymocytes. It counts as cell-based, mouse. As to conditions: Study 3, responder +, stimulator +. The source says: A third and fourth study utilized thymocytes from CBA/CaJ mice as the stimulated (responder) cells, and irradiated BDFl mouse spleen cells as the stimulator cells. Two guanosine derivatives of the present invention, 7a8MGuo and 7a8oGuo, were used for these studies, with 8MGuo serving as positive control for one of the studies.
However, in the presence of interleukin-2 (IL-2), those cells develop responsiveness to allogeneic stimulation. The present studies utilizing thymocytes were therefore carried out in the presence of a co-stimulating amount of IL-2.
(§2) ^1 Plus signs (+) are utilized to indicate the presence of the
(§3) ^3 Allogeneic cells used to costimulate proliferation, after exposure
(§4) T Helper Cell Activation. 1.5×10^5 viable spleen cells from SJL mice or CBA/CaJ mouse thymocytes were cultured with or without an equal number of irradiated (2500 rads) spleen cells from CBA/CaJ or BDFl mice respectively, in 0.2 ml of culture medium in the presence of incremental concentrations of the exemplary 7,8-disubstituted guanine derivatives. The lymphocyte culture medium utilized was that described before, and was further supplemented with 2-mercaptoethanol to a final concentration of 50 uM. Thymocyte cultures also contained 10 percent (v/v) of a concanavalin A-conditioned rat spleen cell medium sold under the name Rat T Cell Monoclone by Collaborative Research. Following 90 hours of culture, one microCurie [^3 H]TdR per culture was admixed, and the resulting culture was maintained for a further six hour time period.
(§5) The cultures were harvested with a Brandel cell harvester (M24V, Biological Research and Development Laboratories, Rockville, Md.) onto glass fiber filter disks. Filter disks were transferred to plastic scintillation vials, covered with liquid scintillation cocktail, and counted in a Beckman LS5700 liquid scintillation counter.

For data set [4], the system named is SJL splenocytes (irradiated CBA/CaJ splenocyte stimulators). The data set is described as follows: T cell proliferation in mixed leukocyte cultures, SJL splenocytes. The data set is classed as cell-based, mouse. As to conditions: responder +, stimulator +, 10^-3 M.
Description: In evaluating the effect of a guanosine derivative on alloantigen-induced proliferation, it is imperative to minimize the simultaneous mitogenic response of B cells to contact with a guanosine derivative. Spleen cells from SJL mice (whose B cells are hyporesponsive to the mitogenic effect of a guanosine derivative, but not to its adjuvant activity) were used as responder cells in two studies. Those responder cells were stimulated with irradiated allogenic cells (from CBA/CaJ mice) in the presence of no added nucleoside, incremental amounts of a guanosine derivative of the invention, 7M8oGuo, or with another guanosine derivative, 8MGuo, used as a positive control.
as §2
material of the column heading in the culture medium, whereas minus signs
(-) are utilized to show absence of such a material from the culture
as §3, §4, §5

A word on the solubility: it is the concentration that dissolves in the medium under given conditions. The low end stands for little dissolved substance, the high end for much dissolved substance.

Description for murine spleen cells: ^1 Mitogenicity measured by the uptake of [^3 H]TdR
(tritiumlabeled thymidine deoxyribonucleoside) as determined by measuring
counts per minute (cpm) per cell culture using the conditions discussed i
the Materials and Methods Section.

In the case of `Cn1c(=O)n([C@@H]2O[C@H](CO)[C@@H](O)[C@H]2O)c2nc(N)[nH]c(=O)c21` [7m8oGuo, 7-methyl-8-oxoguanosine, reference compound], the “[3H] TdR Uptake” value is listed as 39,620 ± 1160 cpm/culture with murine spleen cells (Table 4, 3 × 10^-4 M); 35,070 ± 1830 cpm/culture in the data set on murine spleen cells (Table 4, 10^-3 M); 23,640 ± 770 cpm/culture with murine spleen cells (Table 4, 10^-4 M). In addition, the “Peak Direct anti-SRBC PFC/Culture” value in data set [1] (Table 7, first group, person a) was 1250 ± 125 PFC/Culture; in data set [1] (Table 7, first group, person b) it was 830 ± 67 PFC/Culture; in data set [1] (Table 7, first group, person c), 1225 ± 175 PFC/Culture; in data set [1] (Table 7, second group, person a), 528 PFC/Culture; in data set [1] (Table 7, second group, person b), 297 PFC/Culture; in data set [1] (Table 7, second group, person c), 263 PFC/Culture. Besides, in data set [2] (Table 5, murine system), the “Peak Direct anti-SRBC PFC/Culture” value came out at 723 ± 143 PFC/Culture. For the same compound, the “Average 1 Log Plaque Values” in data set [1] is 867 ± 217 per micromole; in data set [2], 22,359 ± 5154 per micromole. The solubility at 18 h in “physchem” turned out to be 4880 µg/mL (≈ 15.6 mM). The “Direct Anti-SRBC PFC/Culture” value in data set [2] (Table 8, 1 × 10^-5 M) amounted to 145 PFC/Culture.
As to `Nc1nc2c(nc(Br)n2[C@@H]2O[C@@H]3COP(=O)(O)O[C@H]3[C@H]2O)c(=O)[nH]1` [8-BrcGMP, 8-Bromoguanosine-3',5'-cyclic monophosphate], the “lymphocyte mitogenicity, in words” value in the data set on lymphocytes is reported as “weak synthetic intracellular lymphocyte mitogen”.
On to `Nc1nc2c(nc(S)n2[C@@H]2O[C@H](CO)[C@@H](O)[C@H]2O)c(=O)[nH]1` [8MGuo, 8-mercaptoguanosine, reference compound], for which the “[3H] TdR Uptake” value in data set [3] (10^-4 M) is 13,800 ± 1000 counts per minute; in data set [3] (10^-5 M), 15,600 ± 1000 counts per minute; in data set [4] (Study 1), 28,100 ± 2700 counts per minute; in data set [4] (Study 2) it was 30,800 ± 1300 counts per minute. Further, the “Direct Anti-SRBC PFC/Culture” value is 11,000 ± 140 PFC/Culture in data set [2] (Table 1, C57BL/6J, 3 × 10^-4 M); 527 ± 25 PFC/Culture and 782 ± 123 PFC/Culture in data set [2] (Table 1, CBA/CaJ, 3 × 10^-4 M); 813 ± 129 PFC/Culture in data set [2] (Table 1, CBA/CaJ, 10^-4 M). In data set [2] (Table 6, murine system), the “Peak Direct anti-SRBC PFC/Culture” value amounted to 527 ± 25 PFC/Culture.
For the compound `CC=CCSc1nc2c(=O)[nH]c(N)nc2n1[C@@H]1O[C@H](CO)[C@@H](O)[C@H]1O` [compound 22435, 8-(2-Butenylmercapto)guanosine], the “[3H] TdR Uptake” value is listed as 8800 ± 200 cpm/culture with murine spleen cells (Table 2, 3 × 10^-4 M); 11,200 ± 202 cpm/culture with murine spleen cells (Table 2, 10^-3 M); 4500 ± 120 cpm/culture in the data set on murine spleen cells (Table 2, 10^-4 M). In addition, the “Direct Anti-SRBC PFC/Culture” value in data set [2] (Table 1, C57BL/6J, 3 × 10^-4 M) was 9130 ± 1110 PFC/Culture; in data set [2] (Table 1, C57BL/6J, 10^-3 M) it was 12,080 ± 470 PFC/Culture; in data set [2] (Table 1, CBA/CaJ, 3 × 10^-4 M), 582 ± 52 PFC/Culture; in data set [2] (Table 1, CBA/CaJ, 10^-3 M), 607 ± 57 PFC/Culture; in data set [2] (Table 1, CBA/CaJ, 10^-4 M) it was 247 ± 38 PFC/Culture. Besides, the “adjuvanticity, in words” value in data set [2] (murine system) is recorded as “greater than that of the longer 8-cinnamyl derivative (22359), but less than that of the 8-mercapto compound (8MGuo)”.
On to `CCn1c(=O)n([C@@H]2O[C@H](CO)[C@@H](O)[C@H]2O)c2nc(N)[nH]c(=O)c21` [compound 23643, 7-Ethyl-8-oxoguanosine], for which the “[3H] TdR Uptake” value in the data set with murine spleen cells (Table 4, 3 × 10^-4 M) is reported as 48,690 ± 1120 cpm/culture; in the data set with murine spleen cells (Table 4, 10^-3 M), 34,160 ± 780 cpm/culture; in the data set with murine spleen cells (Table 4, 10^-4 M) it was 37,490 ± 540 cpm/culture. Further, the “Peak Direct anti-SRBC PFC/Culture” value in data set [1] (Table 7, later studies, single preparation) stood at 9045 ± 310 PFC/Culture. In addition, the “Direct Anti-SRBC PFC/Culture” value in data set [2] (Table 8, 1 × 10^-5 M) is reported as 270 PFC/Culture. Moreover, in data set [2] (murine system (Table 5), vs 8-BrGuo), the “peak concentration lower than comparison compound” value worked out at 1.5 log units.
As to `CCCCn1c(=O)n([C@@H]2O[C@H](CO)[C@@H](O)[C@H]2O)c2nc(N)[nH]c(=O)c21` [compound 23644, 7-Butyl-8-oxoguanosine], the “[3H] TdR Uptake” value in the data set on murine spleen cells (Table 4, 3 × 10^-4 M) is recorded as 41,180 ± 410 cpm/culture; in the data set with murine spleen cells (Table 4, 10^-3 M), 33,220 ± 1330 cpm/culture; in the data set with murine spleen cells (Table 4, 10^-4 M) it was 30,720 ± 1030 cpm/culture. For the same compound, the “Average 1 Log Plaque Values” in data set [1] is recorded as 52,397 per micromole; in data set [2] it was 118,886 ± 80,092 per micromole. In addition, the “peak adjuvanticity values greater as compared to 7m8oGuo” value in data set [1] (human system (Table 3)) was “about 100%”. In addition, in data set [2] (Table 5, murine system), the “Peak Direct anti-SRBC PFC/Culture” value was 1058 ± 154 PFC/Culture. Also, in data set [2] (Table 8, 1 × 10^-5 M), the “Direct Anti-SRBC PFC/Culture” value came out at 900 PFC/Culture.
